Assay results published in patent US20070054353A1, “Nuclear receptor transcriptional corepressor and uses thereof” (priority 2002, published 2007).

Target: T1, PR (Homo sapiens, UniProt P06401)
T1 construct: expressed in transfected cells; host or cells: COS-7
T1 sequence (P06401 1-933): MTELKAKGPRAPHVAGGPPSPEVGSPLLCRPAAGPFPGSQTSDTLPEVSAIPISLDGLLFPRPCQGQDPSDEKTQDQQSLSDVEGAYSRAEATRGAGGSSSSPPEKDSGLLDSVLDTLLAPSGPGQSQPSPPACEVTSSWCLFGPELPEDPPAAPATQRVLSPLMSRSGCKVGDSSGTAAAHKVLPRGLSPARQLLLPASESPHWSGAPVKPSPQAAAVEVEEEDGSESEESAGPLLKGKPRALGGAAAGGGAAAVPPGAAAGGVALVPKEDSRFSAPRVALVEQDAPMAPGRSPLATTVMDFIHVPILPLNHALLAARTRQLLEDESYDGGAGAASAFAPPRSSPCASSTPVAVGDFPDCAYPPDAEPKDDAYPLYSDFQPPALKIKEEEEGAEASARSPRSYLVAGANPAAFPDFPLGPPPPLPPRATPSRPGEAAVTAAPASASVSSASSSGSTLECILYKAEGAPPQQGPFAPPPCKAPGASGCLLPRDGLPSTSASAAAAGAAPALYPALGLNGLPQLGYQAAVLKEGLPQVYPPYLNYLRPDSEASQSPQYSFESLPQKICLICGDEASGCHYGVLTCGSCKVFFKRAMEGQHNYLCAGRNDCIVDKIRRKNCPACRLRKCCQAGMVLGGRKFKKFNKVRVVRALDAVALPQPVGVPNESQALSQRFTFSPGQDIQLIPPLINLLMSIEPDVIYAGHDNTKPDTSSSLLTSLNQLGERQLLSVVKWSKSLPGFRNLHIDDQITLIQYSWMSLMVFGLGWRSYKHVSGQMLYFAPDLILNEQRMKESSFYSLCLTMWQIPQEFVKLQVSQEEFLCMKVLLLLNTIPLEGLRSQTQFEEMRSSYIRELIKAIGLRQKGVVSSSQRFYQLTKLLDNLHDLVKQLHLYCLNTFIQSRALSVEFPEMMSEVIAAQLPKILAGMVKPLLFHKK
Assay: Transient transfection luciferase reporter, PR transactivation in COS-7 cells
Assay type: cell-based
Conditions: TSA 3 μM, COS-7 cells
Experimental: All cell lines were cultured under the recommended conditions. COS-7 cells grown in […] in DMEM without phenol red, supplemented with 10% FBS were transfected in medium without serum with lipofectamine 2000 (Invitrogen, Burlington, Ont.) with 100 ng of nuclear receptor expression vectors as indicated, 200 ng of TIF-2 or TIF-2.1, as indicated, 250 ng of reporter plasmid, 250 ng of infemal control vector pCMV-βgal, and various concentrations of LCoR/pSG5 or LCoR-LSKAA/pSG5 expression vectors and pSG5 carrier. Medium was replaced 24 h after transfection by a medium containing charcoal-stripped serum and ligand (100 nM) and TSA (3 μM) for 18 h, as indicated. Cells were harvested in 200 […] of reporter lysis buffer (Promega).
COS-7 cells were cotransfected with expression vectors for ERα HEG0 (A and C) or GR (D) or PR (F) or VDR (H), ERE3-TATA-pXP2 (A and C), GRE5/pXP2 (D and F) or VDRE3tk/pXP2 (H) luciferase reporter vectors, pCMV-β-gal as internal control, and LCoR/pSG5 or LSKAA/pSG5 expression vectors as indicated. Cells were treated with 10^−7M of hormones (solid bars) or vehicle (open bars). Normalized luciferase activities (RLU) are the means±SEM from at least 3 experiments. […] Cells were transfected as in FIG. 5A with LCoR, TIF-2 or TIF2.1 as indicated. […]

CC(/C=C/C(=O)NO)=C\[C@@H](C)C(=O)c1ccc(N(C)C)cc1 [TSA, trichostatin A]
effect on LCoR repression of PR function: little or no effect
